ChEMBL document CHEMBL1201862, “PubChem BioAssay data set” (2004)
Calls of active or inactive are those of the source.

Experiments:
[1] = HepG2 cell cytotoxicity, dose response, cytotoxicity control, ATP luminescence, cherry-pick, activator set 2 (AID 1053143); format: functional, cell-based
[2] = molecular target: T1, Sentrin-specific protease 6 (Homo sapiens, UniProt Q9GZR1); format: functional;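 note: Luminescence-based dose-response confirmatory assay of SENP6 inhibition, following up an ultra-high-throughput screen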
T1 sequence (Q9GZR1 whole entry): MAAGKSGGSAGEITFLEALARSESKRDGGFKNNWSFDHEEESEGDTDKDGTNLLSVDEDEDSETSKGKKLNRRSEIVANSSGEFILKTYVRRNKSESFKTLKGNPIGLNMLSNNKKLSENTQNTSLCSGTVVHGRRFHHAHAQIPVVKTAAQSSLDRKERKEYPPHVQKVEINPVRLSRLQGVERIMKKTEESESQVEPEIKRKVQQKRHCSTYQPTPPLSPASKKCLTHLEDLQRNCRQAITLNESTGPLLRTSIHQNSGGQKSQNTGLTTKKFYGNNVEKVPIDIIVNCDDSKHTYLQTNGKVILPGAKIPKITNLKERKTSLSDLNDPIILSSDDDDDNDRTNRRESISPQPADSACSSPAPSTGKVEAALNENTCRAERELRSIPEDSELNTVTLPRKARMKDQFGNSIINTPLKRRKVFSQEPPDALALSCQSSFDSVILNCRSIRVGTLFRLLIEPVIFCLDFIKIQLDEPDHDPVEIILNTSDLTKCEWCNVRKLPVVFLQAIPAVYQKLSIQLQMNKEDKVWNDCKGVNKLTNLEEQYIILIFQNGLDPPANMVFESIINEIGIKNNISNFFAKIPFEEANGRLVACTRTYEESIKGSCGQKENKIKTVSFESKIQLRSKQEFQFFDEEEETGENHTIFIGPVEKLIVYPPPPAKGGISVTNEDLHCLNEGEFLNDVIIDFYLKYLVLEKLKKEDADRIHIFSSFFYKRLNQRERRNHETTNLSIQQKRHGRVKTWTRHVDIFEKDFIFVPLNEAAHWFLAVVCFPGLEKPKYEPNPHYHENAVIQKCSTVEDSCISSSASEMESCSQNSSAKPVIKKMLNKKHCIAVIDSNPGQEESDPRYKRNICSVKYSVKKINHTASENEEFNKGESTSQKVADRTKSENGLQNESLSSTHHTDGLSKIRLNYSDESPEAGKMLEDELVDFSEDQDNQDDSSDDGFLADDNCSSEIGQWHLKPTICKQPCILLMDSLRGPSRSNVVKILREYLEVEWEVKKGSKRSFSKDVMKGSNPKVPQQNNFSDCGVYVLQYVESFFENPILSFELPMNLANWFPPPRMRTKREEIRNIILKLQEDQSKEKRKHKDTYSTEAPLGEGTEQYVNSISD

[3] = molecular target: T2, G-protein coupled receptor 55 (Homo sapiens, UniProt Q9Y2T6); assay: GPR55 agonists via beta-arrestin recruitment, primary screen, imaging, U2OS cells, beta-arrestin-GFP redistribution (AID 1961); format: functional
T2 sequence (Q9Y2T6 whole entry): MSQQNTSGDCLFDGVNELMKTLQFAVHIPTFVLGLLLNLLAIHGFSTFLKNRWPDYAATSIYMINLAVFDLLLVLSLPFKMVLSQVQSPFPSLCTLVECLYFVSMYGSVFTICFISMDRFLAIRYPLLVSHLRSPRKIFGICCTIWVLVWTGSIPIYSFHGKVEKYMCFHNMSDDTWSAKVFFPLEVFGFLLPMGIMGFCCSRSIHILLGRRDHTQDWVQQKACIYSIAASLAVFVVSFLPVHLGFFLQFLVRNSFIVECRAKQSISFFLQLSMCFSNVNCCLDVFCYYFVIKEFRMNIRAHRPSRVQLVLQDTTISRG

[4] = molecular target: T3, Sentrin-specific protease 7 (Homo sapiens, UniProt Q9BQF6); format: functional;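 note: Luminescence-based dose-response confirmation of ultra-high-throughput screening hits, measuring inhibition of SENP7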
T3 sequence (Q9BQF6 whole entry): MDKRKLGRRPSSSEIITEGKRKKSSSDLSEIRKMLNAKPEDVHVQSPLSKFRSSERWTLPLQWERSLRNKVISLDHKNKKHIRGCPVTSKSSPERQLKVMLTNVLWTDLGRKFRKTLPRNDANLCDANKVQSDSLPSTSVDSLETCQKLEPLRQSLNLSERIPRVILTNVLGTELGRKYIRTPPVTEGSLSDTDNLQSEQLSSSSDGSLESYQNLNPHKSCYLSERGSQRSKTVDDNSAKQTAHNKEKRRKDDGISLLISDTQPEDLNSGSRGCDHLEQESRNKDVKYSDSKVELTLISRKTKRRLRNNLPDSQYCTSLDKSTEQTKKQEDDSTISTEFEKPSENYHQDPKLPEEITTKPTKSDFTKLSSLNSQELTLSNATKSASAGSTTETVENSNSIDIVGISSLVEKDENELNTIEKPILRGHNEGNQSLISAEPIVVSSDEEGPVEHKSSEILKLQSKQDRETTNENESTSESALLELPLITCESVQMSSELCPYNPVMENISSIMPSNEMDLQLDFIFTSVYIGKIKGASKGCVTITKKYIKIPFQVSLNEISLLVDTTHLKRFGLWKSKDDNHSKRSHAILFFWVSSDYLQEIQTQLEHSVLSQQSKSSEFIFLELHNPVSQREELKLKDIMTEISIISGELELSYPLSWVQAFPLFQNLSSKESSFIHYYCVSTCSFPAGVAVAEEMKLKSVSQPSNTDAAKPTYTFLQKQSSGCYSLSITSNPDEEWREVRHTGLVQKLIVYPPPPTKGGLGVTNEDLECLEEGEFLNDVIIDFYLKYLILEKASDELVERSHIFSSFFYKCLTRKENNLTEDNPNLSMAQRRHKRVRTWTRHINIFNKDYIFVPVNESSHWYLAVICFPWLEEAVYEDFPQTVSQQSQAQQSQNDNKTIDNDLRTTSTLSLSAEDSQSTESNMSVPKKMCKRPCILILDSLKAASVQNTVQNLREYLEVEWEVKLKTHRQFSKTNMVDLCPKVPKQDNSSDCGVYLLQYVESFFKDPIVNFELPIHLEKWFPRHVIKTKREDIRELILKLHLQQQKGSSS

Cannabinoid receptor 2 [5] = molecular target: T4, Cannabinoid receptor 2 (Homo sapiens, UniProt P34972); assay: SAR analysis of agonists of the Cannabinoid Receptor 2 using an Image-Based Assay - Set 2. [Related pubchem assays (depositor defined):AID1961, AID1965]; format: functional
T4 sequence (P34972 whole entry): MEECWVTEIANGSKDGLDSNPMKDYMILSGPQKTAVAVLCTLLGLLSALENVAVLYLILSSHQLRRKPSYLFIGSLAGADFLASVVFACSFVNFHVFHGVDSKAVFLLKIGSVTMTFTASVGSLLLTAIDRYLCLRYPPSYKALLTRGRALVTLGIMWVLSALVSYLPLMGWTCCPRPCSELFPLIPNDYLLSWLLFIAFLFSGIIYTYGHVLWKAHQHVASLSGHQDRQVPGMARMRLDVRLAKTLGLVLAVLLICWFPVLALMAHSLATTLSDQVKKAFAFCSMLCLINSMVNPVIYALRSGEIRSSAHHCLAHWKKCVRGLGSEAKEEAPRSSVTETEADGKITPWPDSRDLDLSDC

Caspase-3 = molecular target: T5, Caspase-3 (Homo sapiens, UniProt P42574); format: functional;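 note: Dose-response selectivity test against caspase-3 for candidate inhibitors of sentrin-specific proteases (SENPs)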
T5 sequence (P42574 whole entry): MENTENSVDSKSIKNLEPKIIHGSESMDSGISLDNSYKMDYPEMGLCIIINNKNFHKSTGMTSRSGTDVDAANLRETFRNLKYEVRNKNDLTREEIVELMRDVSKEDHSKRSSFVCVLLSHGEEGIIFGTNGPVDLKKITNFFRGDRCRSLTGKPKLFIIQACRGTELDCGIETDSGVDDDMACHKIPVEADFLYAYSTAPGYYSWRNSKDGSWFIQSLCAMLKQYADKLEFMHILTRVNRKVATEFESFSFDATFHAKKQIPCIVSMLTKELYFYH

Cannabinoid receptor 2 [6] = molecular target: T4, Cannabinoid receptor 2; assay: SAR analysis of antagonists of the Cannabinoid Receptor 2 using an Image-Based Assay - Set 2. [Related pubchem assays (depositor defined):AID1961, AID1965]; format: functional
[7] = molecular target: T6, Sentrin-specific protease 8 (Homo sapiens, UniProt Q96LD8); format: functional;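 note: luminescence read-out of SENP8 inhibition, dose-response confirmation following an ultra-high-throughput screen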
T6 sequence (Q96LD8 whole entry): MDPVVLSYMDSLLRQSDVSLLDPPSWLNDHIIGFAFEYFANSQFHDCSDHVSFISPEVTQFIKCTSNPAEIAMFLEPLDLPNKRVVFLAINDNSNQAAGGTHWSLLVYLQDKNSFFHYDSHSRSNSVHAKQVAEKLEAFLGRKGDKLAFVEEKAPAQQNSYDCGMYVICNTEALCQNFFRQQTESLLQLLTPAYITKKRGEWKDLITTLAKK

[8] = molecular target: T2, G-protein coupled receptor 55; assay: SAR analysis of selective Agonists of GPR55 using an Image-Based Assay. [Related pubchem assays (depositor defined):AID1961, AID1965]; format: functional
Cannabinoid receptor 1 = Cannabinoid receptor 1 (Homo sapiens, UniProt P21554); assay: SAR analysis of antagonists of the Cannabinoid Receptor 1 using an Image-Based Assay. [Related pubchem assays (depositor defined):AID1961, AID1965]; format: functional
Sequence of Cannabinoid receptor 1 (P21554 whole entry): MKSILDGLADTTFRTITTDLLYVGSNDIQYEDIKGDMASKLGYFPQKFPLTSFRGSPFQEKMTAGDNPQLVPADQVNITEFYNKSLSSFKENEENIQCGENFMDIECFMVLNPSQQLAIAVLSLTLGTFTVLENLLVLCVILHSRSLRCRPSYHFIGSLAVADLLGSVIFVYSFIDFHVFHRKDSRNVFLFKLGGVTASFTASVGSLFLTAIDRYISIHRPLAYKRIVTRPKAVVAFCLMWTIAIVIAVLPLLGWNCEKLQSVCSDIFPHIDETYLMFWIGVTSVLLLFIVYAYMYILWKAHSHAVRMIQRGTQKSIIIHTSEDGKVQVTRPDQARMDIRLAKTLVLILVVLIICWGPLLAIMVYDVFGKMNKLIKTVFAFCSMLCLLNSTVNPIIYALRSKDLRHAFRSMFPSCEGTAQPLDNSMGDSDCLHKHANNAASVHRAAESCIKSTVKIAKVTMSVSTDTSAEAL

Interleukin-8 = Interleukin-8 (Homo sapiens, UniProt P10145); assay: Dose Response confirmation of uHTS small molecule hits for cystic fibrosis induced NFkb Inhibitors in a PAF-induced IL8 counterscreen.; format: functional; settings: read-out: IC50_Mean
Sequence of Interleukin-8 (P10145 whole entry): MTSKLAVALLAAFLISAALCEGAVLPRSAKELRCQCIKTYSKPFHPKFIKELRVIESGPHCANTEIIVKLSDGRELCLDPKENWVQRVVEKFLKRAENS

[9] = molecular target: Latent membrane protein 1 (Human herpesvirus 4 (strain B95-8), UniProt P03230); assay: TES1-eGFP NF-kB reporter inhibition versus Tet-On dsRED, dose response, selectivity assay for LMP1 NF-kB inhibitor project, imaging, HEK293T, dual-color eGFP/dsRED, cherry-picks (AID 588398); format: functional, cell-based
Sequence of Latent membrane protein 1 (P03230 whole entry): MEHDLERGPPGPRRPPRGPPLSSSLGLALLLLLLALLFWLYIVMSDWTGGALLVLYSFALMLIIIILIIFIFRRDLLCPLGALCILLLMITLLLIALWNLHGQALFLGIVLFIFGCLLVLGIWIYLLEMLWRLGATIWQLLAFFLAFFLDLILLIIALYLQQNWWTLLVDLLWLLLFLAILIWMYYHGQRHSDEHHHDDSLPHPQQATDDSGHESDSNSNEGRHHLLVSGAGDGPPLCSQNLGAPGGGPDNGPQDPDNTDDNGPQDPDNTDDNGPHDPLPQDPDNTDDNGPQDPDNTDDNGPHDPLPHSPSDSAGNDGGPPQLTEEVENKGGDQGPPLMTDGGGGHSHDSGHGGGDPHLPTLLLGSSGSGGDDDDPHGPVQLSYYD

HEK293 [10] = assay: inhibitors of LMP1-driven NF-kB reporter, dose response, cell-based, HEK293, luciferase, cherry-pick (AID 588343); format: functional; settings: Homo sapiens
Vero = Vero cell cytotoxicity, cytotoxicity control for flavivirus capping enzyme inhibitors (AID 588742); format: functional; settings: Chlorocebus sabaeus
[11] = Counterscreen for inhibitors of Trypanosoma brucei methionyl tRNA synthetase (MetRS): Luminescence-based cell-based high throughput dose response assay to identify compounds that are cytotoxic to Jurkat human T lymphocyte cells.; format: functional
[12] = molecular target: Nucleotide-binding oligomerization domain-containing protein 2 (Homo sapiens, UniProt Q9HC29); assay: NOD2 signaling inhibitors, cell-based, luminescence, uHTS, HEK293 (AID 1566); format: functional
HEK293 [13] = assay: cells; format: functional, cell-based; settings: Homo sapiens
HEK293 [14] = assay: NOD2 signaling inhibitors in MDP-stimulated cells, cell-based, uHTS, luminescence (AID 2001); format: functional; settings: Homo sapiens
HEK293 [15] = assay: cells; format: functional, cell-based; settings: Homo sapiens; remark: listed apart in the source
HEK293 [16] = assay: NOD1 signaling inhibitors, primary screen, cell-based, luminescence, uHTS (AID 1578); format: functional; settings: Homo sapiens
HEK293 [17] = assay: cells; format: functional, cell-based; settings: Homo sapiens; remark: listed apart in the source
Cytochrome P450 1A2 = molecular target: T7, Cytochrome P450 1A2 (Homo sapiens, UniProt P05177);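 note: PubChem cytochrome P450 panel assay, CYP1A2 panel member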
T7 sequence (P05177 whole entry): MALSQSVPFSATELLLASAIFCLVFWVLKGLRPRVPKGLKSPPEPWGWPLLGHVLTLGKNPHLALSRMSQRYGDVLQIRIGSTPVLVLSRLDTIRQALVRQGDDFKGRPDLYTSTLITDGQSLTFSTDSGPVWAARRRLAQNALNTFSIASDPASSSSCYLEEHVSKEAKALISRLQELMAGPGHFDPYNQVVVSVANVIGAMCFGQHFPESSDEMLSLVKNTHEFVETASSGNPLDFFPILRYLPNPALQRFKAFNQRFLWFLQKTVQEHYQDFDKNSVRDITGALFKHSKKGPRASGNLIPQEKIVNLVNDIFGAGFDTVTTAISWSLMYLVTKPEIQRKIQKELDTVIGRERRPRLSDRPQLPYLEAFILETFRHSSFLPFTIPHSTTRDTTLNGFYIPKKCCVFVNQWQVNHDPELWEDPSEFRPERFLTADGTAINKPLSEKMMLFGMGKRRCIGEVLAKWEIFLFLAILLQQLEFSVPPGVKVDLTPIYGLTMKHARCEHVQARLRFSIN

[18] = molecular target: Heat shock protein HSP 90-alpha (Homo sapiens, UniProt P07900); format: functional, organism-based
Genome polyprotein = Genome polyprotein (dengue virus type 2, UniProt P29990); assay: Dengue-2 NS5 methyltransferase inhibitors, primary screen, biochemical, confirmation dose response (AID 588689); format: functional
Sequence of Genome polyprotein (P29990 2492-3391 limits assumed): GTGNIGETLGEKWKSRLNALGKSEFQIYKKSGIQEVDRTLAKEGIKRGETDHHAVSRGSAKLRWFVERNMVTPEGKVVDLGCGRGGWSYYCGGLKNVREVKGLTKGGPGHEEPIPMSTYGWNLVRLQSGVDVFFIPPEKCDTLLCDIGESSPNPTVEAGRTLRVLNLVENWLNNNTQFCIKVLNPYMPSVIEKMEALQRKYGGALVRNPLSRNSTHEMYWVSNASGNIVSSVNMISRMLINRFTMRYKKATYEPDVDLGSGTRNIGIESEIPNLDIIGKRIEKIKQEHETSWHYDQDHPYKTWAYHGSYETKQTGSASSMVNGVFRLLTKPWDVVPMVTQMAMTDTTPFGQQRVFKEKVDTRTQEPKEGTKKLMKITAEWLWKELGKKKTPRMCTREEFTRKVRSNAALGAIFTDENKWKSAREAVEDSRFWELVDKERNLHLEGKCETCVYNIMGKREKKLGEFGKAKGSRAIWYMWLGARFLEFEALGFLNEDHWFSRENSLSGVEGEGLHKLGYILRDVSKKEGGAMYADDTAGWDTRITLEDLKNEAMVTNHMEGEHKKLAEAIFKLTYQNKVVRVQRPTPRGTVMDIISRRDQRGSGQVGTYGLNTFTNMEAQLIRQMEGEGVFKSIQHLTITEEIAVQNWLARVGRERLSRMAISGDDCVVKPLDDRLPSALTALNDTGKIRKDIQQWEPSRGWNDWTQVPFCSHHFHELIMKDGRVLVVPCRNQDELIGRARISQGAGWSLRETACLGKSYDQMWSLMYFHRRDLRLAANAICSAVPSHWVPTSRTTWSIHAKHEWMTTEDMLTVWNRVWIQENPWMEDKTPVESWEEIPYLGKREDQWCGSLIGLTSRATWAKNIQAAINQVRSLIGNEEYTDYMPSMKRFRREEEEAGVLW

[19] = Luminescence Cell-Based Dose Retest to Confirm Inhibitors of Cancer Stem Cells. [Related pubchem assays (depositor defined):AID2717, AID2721]; format: functional; settings: Homo sapiens
[20] = molecular target: Lysine-specific demethylase 4C (Homo sapiens, UniProt Q9H3R0); assay: GASC-1 (JMJD2C) histone demethylase inhibitors, dose response, biochemical, DELFIA europium, cherry-picked samples (AID 488835); format: functional
Sequence of Lysine-specific demethylase 4C (Q9H3R0 whole entry, the tested form may be a part): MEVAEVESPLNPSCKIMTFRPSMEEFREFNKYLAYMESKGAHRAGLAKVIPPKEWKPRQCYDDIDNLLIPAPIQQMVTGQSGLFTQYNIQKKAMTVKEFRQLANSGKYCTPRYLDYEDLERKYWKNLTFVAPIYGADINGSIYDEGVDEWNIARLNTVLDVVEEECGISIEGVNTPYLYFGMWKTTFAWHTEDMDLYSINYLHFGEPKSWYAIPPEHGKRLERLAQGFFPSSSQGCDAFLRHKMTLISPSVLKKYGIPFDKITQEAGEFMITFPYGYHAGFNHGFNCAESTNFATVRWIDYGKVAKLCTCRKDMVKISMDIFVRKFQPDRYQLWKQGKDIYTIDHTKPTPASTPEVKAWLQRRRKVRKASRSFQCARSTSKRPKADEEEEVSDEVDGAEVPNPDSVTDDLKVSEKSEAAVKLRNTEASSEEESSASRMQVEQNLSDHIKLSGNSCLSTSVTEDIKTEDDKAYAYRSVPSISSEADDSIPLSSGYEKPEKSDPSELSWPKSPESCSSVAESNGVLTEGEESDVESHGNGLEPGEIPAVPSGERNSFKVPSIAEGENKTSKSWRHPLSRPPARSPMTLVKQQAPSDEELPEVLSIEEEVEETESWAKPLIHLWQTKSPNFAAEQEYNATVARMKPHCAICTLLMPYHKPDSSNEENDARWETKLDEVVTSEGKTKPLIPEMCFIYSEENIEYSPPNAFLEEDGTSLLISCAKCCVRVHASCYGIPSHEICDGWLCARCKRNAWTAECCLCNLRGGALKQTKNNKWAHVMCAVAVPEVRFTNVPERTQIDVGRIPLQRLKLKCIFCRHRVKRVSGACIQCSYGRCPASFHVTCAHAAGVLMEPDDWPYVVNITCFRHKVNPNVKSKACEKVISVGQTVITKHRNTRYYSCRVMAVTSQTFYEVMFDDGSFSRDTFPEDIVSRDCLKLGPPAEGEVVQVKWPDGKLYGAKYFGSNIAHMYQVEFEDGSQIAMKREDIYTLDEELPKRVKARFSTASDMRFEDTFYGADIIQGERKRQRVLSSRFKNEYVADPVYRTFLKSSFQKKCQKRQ

CHO = assay: cytotoxicity in TLR9-MyD88 CHO cells, dose response, cytotoxicity control for TLR9-MyD88 binding inhibitor project, cell-based, luminescence (AID 588339); format: functional, hamster; settings: Cricetulus griseus;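 note: CHO cells stably coexpressing TLR9 and MyD88 fusions from primary screen; compound exposure lasted 48 hours before viability readout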
Cytochrome P450 2C9 = Cytochrome P450 2C9 (Homo sapiens, UniProt P11712)
Sequence of Cytochrome P450 2C9 (P11712 whole entry): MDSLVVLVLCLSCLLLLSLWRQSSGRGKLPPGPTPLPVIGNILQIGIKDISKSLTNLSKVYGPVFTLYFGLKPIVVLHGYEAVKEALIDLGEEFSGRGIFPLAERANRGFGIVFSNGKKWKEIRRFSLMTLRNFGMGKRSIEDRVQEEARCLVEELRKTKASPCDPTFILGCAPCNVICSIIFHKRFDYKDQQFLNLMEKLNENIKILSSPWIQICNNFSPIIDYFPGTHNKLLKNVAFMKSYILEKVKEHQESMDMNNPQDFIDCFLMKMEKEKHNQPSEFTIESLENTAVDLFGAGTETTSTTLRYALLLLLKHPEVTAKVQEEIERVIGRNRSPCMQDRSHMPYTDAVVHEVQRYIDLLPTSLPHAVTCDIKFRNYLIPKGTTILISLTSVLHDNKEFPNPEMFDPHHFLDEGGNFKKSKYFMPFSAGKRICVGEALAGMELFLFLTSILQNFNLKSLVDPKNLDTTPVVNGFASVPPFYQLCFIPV

SMILES: CC(C)=CC(=O)Nc1ccc(OCc2ccccc2)cc1
- AC50 [1]: > 52 µM (inactive)
- IC50 [2]: 25.9 µM (active)
- EC50 [3]: 2.34 µM (active)
- IC50 [4]: 8.82 µM (active)
- EC50 (Cannabinoid receptor 2 [5]): > 32 µM (inactive)
- IC50 (Caspase-3): 20.8 µM (active)
- IC50 (Cannabinoid receptor 2 [6]): > 32 µM (inactive)
- IC50 [7]: 28.6 µM (active)
- EC50 [8]: 1.89 µM (active)
- IC50 (Cannabinoid receptor 1): > 32 µM (inactive)

SMILES: COc1ccc(-c2csc3ncnc(NCCN4CCOCC4)c23)cc1
- IC50 (Interleukin-8): 50.7 µM (inactive)
- AC50 [9]: 21.3 µM (active)
- AC50 (HEK293 [10]): 25.3 µM (active)

SMILES: O=C(NCc1cc(Br)cc(Br)c1OC(=O)c1ccccc1[N+](=O)[O-])c1ccccc1
- CC50 (Vero): > 40 µM (active)
- IC50 [11]: 50.3 µM (inactive)
- EC50 [12]: 18.6 µM (active)
- IC50 (HEK293 [13]): > 20 µM (inactive)
- IC50 (HEK293 [14]): 5.6 µM (active)
- IC50 (HEK293 [15]): > 20 µM (inactive)
- EC50 (HEK293 [16]): 6.43 µM (active)
- IC50 (HEK293 [17]): 5.22 µM (active)

SMILES: Cc1ccc(S(=O)(=O)O)cc1.c1cc2c(c(NC3=NCCN3)c1)CCCC2
- AC50 (Cytochrome P450 1A2): inactive

SMILES: CC1(C)CC[C@]2(C(=O)O)CC[C@]3(C)C(=CC[C@@H]4[C@@]5(C)CC[C@H](O[C@@H]6O[C@H](C(=O)O)[C@@H](O)[C@H](O[C@@H]7OC[C@H](O)[C@H](O)[C@H]7O)[C@H]6O)C(C)(C)[C@@H]5CC[C@]43C)[C@@H]2C1
- CC50 (Vero): 36.8 µM (active)
- AC50 [18]: 649 nM (active)
- IC50 (Genome polyprotein): 31 µM (active)
- AC50 [19]: 2.85 µM (active)

SMILES: c1ccc2cc(CCO[C@H]3CCCCO3)ncc2c1
- AC50 [20]: 11.3 µM (active)

SMILES: CNC(=S)N/N=C/c1ccc(OCc2ccccc2)c(Br)c1
- IC50 (CHO): 7.62 µM (active)

SMILES: COc1cc(C(=O)NCc2ccc(OCCN(C)C)cc2)cc(OC)c1OC [TRIMETHOBENZAMIDE]
- AC50 (Cytochrome P450 2C9): inactive
- AC50 (Cytochrome P450 1A2): inactive
